Results: PubChem BioAssay AID463199 (Broad Institute, 2010)
The source made the active and inactive calls.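 Rule for the calls: active = AC50, the dose giving half-maximal effect, exceeds a fixed cutoff for a compound that rescues yeast growth under heat; inactive = the rest, inconclusive results apart.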

Test system: S. cerevisiae Burl-1 ts mutant growth, BacTiter-Glo, 38.5C 24 h
Assay: growth induction of Burl-1 ts yeast mutant, dose response, counter-screen for SUMOylation pathway inhibitor project, whole organism, S. cerevisiae, luminescence (AID 463199)

| SMILES | AC50 |
| --- | --- |
| Cc1ccc(SCCNC(=O)CN2C(=O)c3ccccc3S2(=O)=O)cc1 | > 42 µM (inactive) |
| CN=C(Nc1cccnc1)c1ccccc1 | > 42 µM (inactive) |
| Cc1cc(C)n(CCOC(=O)C2C(C=C(Cl)Cl)C2(C)C)n1 (stereo not given) | > 42 µM (inactive) |
| NC(=O)CN1CCOCCN(CC(N)=O)CCOCC1 | > 42 µM (inactive) |
| CN(C)CCNC(=O)c1scc2c1CCCC2 | > 42 µM (inactive) |
| COc1ccccc1NC(=O)N1CCN(C(=O)Nc2ccccc2OC)CC1 | > 42 µM (inactive) |
| Cn1c(O)c(C(c2ccccn2)c2c(O)n(C)c(=S)n(C)c2=O)c(=O)n(C)c1=S | > 42 µM (inactive) |
| O=C(NCc1ccco1)C1CC(=O)N(c2ccc(Cl)cc2)C1 (stereo not given) | > 42 µM (inactive) |
| CN(CC(=O)NCc1cccs1)S(=O)(=O)c1cccc2nsnc12 | > 42 µM (inactive) |
| CCc1c(C(=O)N2CCN(c3ccccc3F)CC2)[nH]c(C)c1C(C)=O | > 42 µM (inactive) |
| O=C(Cn1cnc2ccccc2c1=O)c1ccc(OC(F)F)cc1 | > 42 µM (inactive) |
| CCOC(=O)C1C(c2ccc(C)o2)NC(=O)NC1(O)C(F)(F)F (stereo not given) | > 42 µM (inactive) |
| NNc1nc2sc3c(c2c(=O)n1-c1ccccc1)CCCC3 | > 42 µM (inactive) |
| CCOC(=O)c1sc(NC(=O)CSc2n[nH]c(-c3ccc(Cl)cc3Cl)n2)c(C#N)c1C | > 42 µM (inactive) |
| CCN(CC)c1ccc(Nc2cc3n(c(=O)n2)CCc2cc(OC)c(OC)cc2-3)cc1 | > 42 µM (inactive) |
| Cc1cc(OCC(=O)NCC2CCC(C(=O)O)CC2)c2c(C)c(C)c(=O)oc2c1 (stereo not given) | > 42 µM (inactive) |
| COc1ccccc1/C=C/C(=O)NC(=S)N1CCOCC1 | > 42 µM (inactive) |
| Cc1cccc(C)c1NC(=O)C(Cl)C(=O)c1ccccc1 (stereo not given) | > 42 µM (inactive) |
| CC(=O)c1cccc(NC(=O)CNC(=O)c2sc3ccccc3c2Cl)c1 | > 42 µM (inactive) |
| CCCCC(=O)NCCc1ccc(S(N)(=O)=O)cc1 | > 42 µM (inactive) |
| CCOC(=O)N1CCC(Nc2nc3ccccc3n3nnnc23)CC1 | > 42 µM (inactive) |
| FC(F)(F)c1nc2ccccc2n2c(-c3ccc(Cl)cc3Cl)nnc12 | > 42 µM (inactive) |
| O=c1[nH]cnc2cc(Cl)ccc12 | 4 µM |
| CCOC(=O)c1cnc2c(C)c(Cl)ccc2c1N1CCOCC1 | > 42 µM (inactive) |
| Cc1ccc(NC(=O)CN2CCN(CCN=CC3=C(O)CC(C)(C)CC3=O)CC2)cc1 | > 42 µM (inactive) |

| SMILES | AC50 |
| --- | --- |
| O=C(c1ccc(OC2CCN(CCc3ccccc3)CC2)cc1)N1CCCC1 | > 42 µM (inactive) |
| Cn1c(=O)c2c(ncn2CC(=O)N2CCCCCC2)n(C)c1=O | > 42 µM (inactive) |
| CN(C)S(=O)(=O)c1ccc(C(=O)/C=C/c2cccnc2)cc1 | > 42 µM (inactive) |
| Cc1c(C(=O)Nc2cccc(F)c2)cnn1-c1ccccc1 | > 42 µM (inactive) |
| O=C(Nc1ncccn1)c1ccc(C(F)(F)F)cc1 | > 42 µM (inactive) |
| O=c1c2c3c(sc2n2cnnc2n1-c1ccccc1)N(Cc1ccccc1)CCC3 | > 42 µM (inactive) |
| N#C/C(=C\c1cn(-c2ccccc2)nc1-c1cccnc1)c1nnc2n1CCCCC2 | > 42 µM (inactive) |
| O=C(NNS(=O)(=O)c1c(F)cc(F)c(Cl)c1F)C12CC3CC(CC(C3)C1)C2 | > 42 µM (inactive) |
| Cc1ccc(N(CC(=O)NCCc2ccc(Cl)cc2)S(=O)(=O)c2c(C)noc2C)cc1 | > 42 µM (inactive) |
| O=C(c1ccncc1)N(Cc1ccccc1)Cc1nc2ccccc2c(=O)[nH]1 | > 42 µM (inactive) |
| O=C(COc1ccc(Cl)cc1)NCCCNC(=O)c1ccccn1 | > 42 µM (inactive) |
| N#Cc1c(Cn2cncn2)nc(=O)n(-c2ccc(Cl)cc2)c1N | > 42 µM (inactive) |
| COc1ccc2[nH]c(=O)c(CN(C(=O)c3ccccn3)c3ccccc3)cc2c1 | > 42 µM (inactive) |
| Cc1ccc(-c2csc(NC(=O)CSc3nc(C)cs3)n2)cc1 | > 42 µM (inactive) |
| COc1cccc(CNC(=O)CCCn2nc(C)c3c(C)n(-c4ccccc4)nc3c2=O)c1 | > 42 µM (inactive) |
| CCc1ccccc1NC(=S)NNC(=O)c1ccccc1Cl | > 42 µM (inactive) |
| CCCC(O)(CCC)C(=O)NNc1ccc(C)cc1 | > 42 µM (inactive) |
| O=C(CSc1cccc2cccnc12)Nc1cc(C(=O)O)cc(C(=O)O)c1 | > 42 µM (inactive) |
| Cc1cccc(-[n+]2c(-c3cccc(Br)c3)[nH]c3nc4ccccc4nc32)c1 | > 42 µM (inactive) |
| CCN(C(=S)NCCOC)c1cccc2ccccc12 | > 42 µM (inactive) |
| Cc1nc2ccccc2c2ncccc12 | > 42 µM (inactive) |
| COc1cc(C(=O)Nc2sc3c(c2C(=O)O)CCC(C)C3)cc(OC)c1OC (stereo not given) | > 42 µM (inactive) |
| O=C(COc1ccc([N+](=O)[O-])cc1)Nc1ccc(C(=O)NCc2cccnc2)cc1 | > 42 µM (inactive) |
| O=C(/C(=N\Nc1ccc(Br)cc1)Sc1nnnn1-c1ccccc1)c1ccccc1 | > 42 µM (inactive) |
| CC(NC(=O)C12CC3CC(CC(O)(C3)C1)C2)c1ccccc1 (stereo not given) | > 42 µM (inactive) |

| SMILES | AC50 |
| --- | --- |
| COc1ccc(NC(=O)COc2cc(C)cc(C)c2)cc1S(=O)(=O)N1CCCCC1 | > 42 µM (inactive) |
| CCCOc1ccccc1C1NC(=O)NC(C)=C1C(=O)OCc1ccccc1 (stereo not given) | > 42 µM (inactive) |
| COc1ccccc1CC(=O)N1CCN(S(=O)(=O)c2ccccc2)CC1 | > 42 µM (inactive) |
| Cc1ccc(C)n1-n1cnc2sc3c(c2c1=O)CCCCC3 | > 42 µM (inactive) |
| CCCCC(=O)N/N=C(\C)CC(=O)Nc1cc(Cl)ccc1OC | > 42 µM (inactive) |
| CC1CCN(S(=O)(=O)c2ccc(NC(=O)c3cccs3)cc2)CC1 | > 42 µM (inactive) |
| CCCn1c(N)cc(=O)n(CCC)c1=O | > 42 µM (inactive) |
| Cn1cc(C(=O)N2CCCC(Nc3ccc(F)cc3)C2)c2ccccc21 (stereo not given) | > 42 µM (inactive) |
| Nc1ccc(NC(=O)c2ccco2)c(Cl)c1 | > 42 µM (inactive) |
| CC(=O)c1ccccc1C(=O)N1CCCC(N2CCN(Cc3ccc4c(c3)OCO4)CC2)C1 (stereo not given) | > 42 µM (inactive) |
| O=C1OCc2cc(NS(=O)(=O)c3cccs3)ccc21 | > 42 µM (inactive) |
| CC(C)CC(c1nnnn1C1CCCCC1)N1CCN(C(=O)c2ccco2)CC1 (stereo not given) | > 42 µM (inactive) |
| COc1ccc2c(c1)c(CC(=O)OCC(N)=O)c(C)n2C(=O)c1ccc(Cl)cc1 | > 42 µM (inactive) |
| CN(CC(=O)Nc1sccc1C#N)Cc1ccccc1 | > 42 µM (inactive) |
| CCCCC(O)(CCCC)C(=O)NN(C(=O)OC)c1ccc(C)cc1 | > 42 µM (inactive) |
| COC(=O)C1C(c2ccc(OC)c(OC)c2)NC(c2ccc(OC)c(OC)c2)C(C(=O)OC)S1(=O)=O (stereo not given) | > 42 µM (inactive) |
| CCN(CC)CCCn1c(=S)[nH]c2ccc(Cl)cc2c1=O | 38.6 µM |
| COc1ccc2nc(NC(=O)c3cc(S(=O)(=O)N4CCOCC4)ccc3C)sc2c1 | > 42 µM (inactive) |
| O=C(CC(c1ccccc1)c1ccccc1)NCCOCc1ccccc1 | > 42 µM (inactive) |
| CCOc1cc(C(N)=O)cc(Cl)c1OCc1ccccc1 | > 42 µM (inactive) |
| C=CCN1c2ccccc2[C@]23C[C@@H](C(=O)OC)N=C2NC(C(=O)OC)=C(C(=O)OC)[C@H]13 | > 42 µM (inactive) |
| O=C(N/N=C/c1cccs1)c1cncc(Br)c1 | > 42 µM (inactive) |
| CCOc1ccc(/C=N/NC(=O)c2ccc(CSc3nc4ccccc4[nH]3)cc2)cc1 | > 42 µM (inactive) |
| COc1cccc(/C=N/NC(=O)CCn2cnc3ccccc32)c1 | > 42 µM (inactive) |
| COC(=O)c1cccc(NC(=O)c2cccnc2)c1 | > 42 µM (inactive) |

| SMILES | AC50 |
| --- | --- |
| CC(=O)OCC(OC(C)=O)C(OC(C)=O)C(OC(C)=O)C(=O)Nc1ccccc1 (stereo not given) | > 42 µM (inactive) |
| Cc1cc(C)c(NC(=O)CCN2CCN(Cc3ccccc3)CC2)c(C)c1 | > 42 µM (inactive) |
| C/C(=C\C(=O)N1CCc2ccccc21)C(=O)O | > 42 µM (inactive) |
| Cc1cc2c(cc1C)-c1nnc(-c3ccc4ccccc4n3)n1C(C)(C)C2 | > 42 µM (inactive) |
| CC12CC3(C)CC(C)(C1)CC(C(=O)NC(=S)N1CCCC1)(C2)C3 | > 42 µM (inactive) |
| CCOc1ccc(Br)cc1CNCCN1CCOCC1 | > 42 µM (inactive) |
| Cc1cccc2nc(COc3ccc4ccccc4c3Br)cn12 | > 42 µM (inactive) |
| COc1ccc(/C=C2/SC(=O)N(NS(=O)(=O)c3ccccc3)C2=S)cc1OC | > 42 µM (inactive) |
| Cc1cc(-c2ccccc2)n(-c2ccc(C(=O)NC(C)C)cc2)n1 | > 42 µM (inactive) |
| Cc1ccc(N2C(=O)C3N=NN(CC(=O)N4N=C(c5cccc6ccccc56)CC4c4ccccc4)C3C2=O)cc1 (stereo not given) | > 21 µM (inactive) |
| O=C(O)C1C(C(=O)O)C2(Cl)C(Cl)=C(Cl)C1(Cl)C2(Cl)Cl (stereo not given) | > 42 µM (inactive) |
| CCOC(=O)c1sc(NC(=O)C(CC)OC(=O)c2ccco2)nc1C (stereo not given) | > 42 µM (inactive) |
| CC(C)(c1ccccc1)c1ccc(OCCN2CCOCC2)cc1 | > 42 µM (inactive) |
| CCOc1ccc(NC(=O)CSc2nnc(Cc3csc(C)n3)o2)cc1 | > 42 µM (inactive) |
| Cc1cc(NC(=O)CC2CCCC2)ccc1Br | > 42 µM (inactive) |
| N#C/C(=C\c1c(N(Cc2ccccc2)Cc2ccccc2)nc2ccccn2c1=O)C(N)=O | > 42 µM (inactive) |
| O=C(OCc1nnc(-c2ccccc2)o1)c1ccc([N+](=O)[O-])o1 | > 42 µM (inactive) |
| N/C(=N\NC(=O)c1sccc1OCc1ccc(Cl)cc1Cl)c1ccccn1 | > 42 µM (inactive) |
| CCNC(=O)COc1ccc(S(=O)(=O)Nc2ccccc2)cc1 | > 21 µM (inactive) |
| Cc1[nH]c(C)c(S(=O)(=O)NCC(C)c2ccccc2)c1C(=O)N1CCCCC1 (stereo not given) | > 42 µM (inactive) |
| Cc1ccnc(NC(=O)CC(c2ccccc2)c2ccccc2)n1 | > 42 µM (inactive) |
| COc1ccc(C(=O)Nc2ccccc2C(=O)NCCN2CCOCC2)cc1OC | > 42 µM (inactive) |
| COc1ccc(NC(=O)Nc2ccccc2C(=O)N2CCCC2)cc1 | 1.83 µM |
| CCOC(=O)c1ccc(NC(=O)c2nc[nH]c2C(=O)N2CCc3ccccc3C2)cc1 | > 42 µM (inactive) |
| Nc1ccc(Oc2ccccc2-c2ccccc2)cc1 | > 42 µM (inactive) |
